Assay results reported in paper PMC6445162, “Effects of NS2B-NS3 protease and furin inhibition on West Nile and Dengue virus replication” (Journal of Enzyme Inhibition and Medicinal Chemistry, 2017).
Read-outs that look alike come from different tables or passages of the source. Peptide text beside a SMILES is read from it.

What was measured:
[1] = target: DENV serotype 2 NS2B-NS3 protease construct (Dengue virus serotype 2); assay: enzyme inhibition (percent inhibition of the cleavage of a fluorogenic substrate); DENV-2 NS2B-NS3pro ~39 nM in well; 100 µM inhibitor, 125 µM substrate Phac-Lys-Arg-Arg-AMC (KM = 60 µM); 100 mM Tris pH 8.5, 20% glycerol, 0.01% Triton X-100; room temperature
[2] = target: T1, WNV NS2B-NS3 protease (West Nile virus, UniProt P06935); design: method as in PMID 23307694; conditions: reference compounds available from previous studies; cited from earlier work
T1 construct: WNV NS2B 40-amino acid cofactor together with the NS3 protease domain

[3] = target: T2, WNV-protease (West Nile virus, UniProt P06935); assay: Incubation with WNV protease and HPLC analysis of cleavage; format: biochemical; conditions: identical conditions, 4 h; data not shown
T2 construct: WNV NS2B 40-amino acid cofactor together with the NS3 protease domain
Experimental: The preferred P3-P1 Lys-Lys-Arg segment[29] was used for the preparation of a series of peptidic inhibitors. The peptides were modified in their prime site segment and at the P4 position (Table 2). […] In contrast, under identical conditions approximately 33% of the chromogenic substrate Phac-Lys-Lys-Arg-pNA was cleaved (data not shown). Thus, these compounds seem to be poor substrates of the WNV NS2B-NS3 protease and therefore, act as competitive inhibitors. The best Ki values <0.2 µM were obtained for peptides with the general structure phenylacetyl-Lys-Lys-Arg-NH2 containing an N-terminal guanidinomethyl substitution at the P4-residue.

[4] = system: DENV (strain 16681); assay: DENV plaque assay (virus yield from infected Huh-7 cells, titration on VeroE6); format: cell-based, Dengue virus serotype 2; conditions: preliminary studies
Experimental: Inhibition of DENV propagation was determined by plaque assay as described recently[20]^,[28] with slight modifications. Huh-7 cells were seeded into 96-well plates and incubated overnight. The next day, cells were infected with DENV (strain 16681) at a multiplicity of infection (MOI) of 1 PFU/cell. Given concentrations of the compounds, dissolved in culture medium, were added to the cells together with the virus. After 2 h incubation at 37 °C, inocula were removed and cells were covered with fresh medium containing given concentrations of the inhibitors. Production of virus progeny was determined 48 h postinfection by titration of cell supernatants using a plaque assay on VeroE6 cells. Ribavirin was included as a reference compound.

[5] = target: T1, WNV NS2B-NS3 protease; assay: Enzyme kinetic inhibition of WNV NS2B-NS3 protease construct (Dixon plot); format: biochemical; conditions: covalently linked WNV NS2B-NS3 construct; substrate Phac-Leu-Lys-Lys-Arg-AMC; Dixon plots, average of at least two measurements
Experimental: (§1) All measurements were performed at room temperature in black flat-bottom 96-well plates (Nunc, Langenselbold, Germany) using microplate readers (Tecan Safire^2, λex = 380 nm and λem = 460 nm, Tecan Group Ltd., Männedorf, Switzerland or Fluoroskan Ascent type 374, λex = 355 nm and λem = 460 nm; Thermo Fisher Scientific, Vantaa, Finland). The assays with the flavivirus protease constructs were performed with 125 μl buffer (100 mM Tris pH 8.5 containing 20% glycerol, 0.01% Triton X-100, and the inhibitor), 50 μl substrate solution, and were started by addition of 25 μl enzyme solution (total assay volume 200 μl).
For measurements with the covalently linked WNV NS2B-NS3 protease construct (∼4 nM in assay) the substrate Phac-Leu-Lys-Lys-Arg-AMC ×3 TFA (50 µM, 100 µM and 200 µM in assay, KM = 47.5 µM) was used, as described previously.
(§2) The DENV serotype 2 NS2B-NS3 protease construct was prepared from an identical clone as described by D’Arcy et al.[26] The purification of the protease was carried out in a buffer with high ion-strength and low pH value, in the absence of glycerol (20 mM Bis-Tris, 500 mM NaCl, pH 6.3), in order to prevent autolysis of the enzyme. Purification was performed by using a 5 ml HisTrapTM FF column (GE Healthcare) and subsequently, a HiLoad 16/60 SuperdexTM 75 column (GE Healthcare). The assays with the DENV-2 NS2B-NS3^pr° (∼39 nM in well) were performed with the substrate Phac-Lys-Arg-Arg-AMC ×3 TFA (125 µM, 62.5 µM and 31.25 µM in assay, KM = 60 µM). All Ki values were obtained from Dixon plots[27] and are the average of at least two measurements. Due to the weak potency of most compounds against the DENV-2 NS2B-NS3 protease construct, only the percentage of inhibition at a constant inhibitor concentration of 100 µM in the presence of 125 µM substrate was determined.

[6] = target: T3, DENV serotype 2 NS2B-NS3 protease (Dengue virus type 2, UniProt P14340); assay: Enzyme kinetic inhibition of DENV-2 NS2B-NS3 protease construct; format: biochemical, Dengue virus serotype 2; conditions: 100 μM inhibitor in the presence of 125 μM substrate; read-out: % Inhib. (DENV)
T3 construct: The proteolytic activity of WNV and DENV is located in the N-terminal part of its NS3 protein; made in house
Experimental: as §1, §2

Compound | Ki [5] | inhibition at 100 µM [6] | other results
4-(guanidinomethyl)-phenylacetyl-Lys-Lys-Arg-NH2 (peptide) |  |  | % inhibition at 100 μM inhibitor, 125 μM substrate [1]: 65%
N=C(N)NCCCCNC(=O)C(CCCCN)NC(=O)C(CCCCN)NC(=O)Cc1ccc(Cl)c(Cl)c1 (stereo not drawn) [3,4-di-Cl-Phac-Lys-Lys-agmatine] |  |  | Ki [2]: 400 nM
N=C(N)NCCC[C@H](NC(=O)[C@H](CCCCN)NC(=O)[C@H](CCCCN)NC(=O)Cc1ccccc1)C(=O)Nc1ccc([N+](=O)[O-])cc1 [Phac-Lys-Lys-Arg-pNA] (HELM PEPTIDE1{[O=C(Cc1ccccc1)[*:2]].K.K.R.[O=[N+]([O-])c1ccc(N[*:1])cc1]}$$$$V2.0) |  |  | amount cleaved by the WNV-protease [3]: approximately 33%
N=C(N)N[C@H]1CC[C@H](CNC(=O)[C@H](CCCCN)NC(=O)[C@H](CCCCN)NC(=O)Cc2ccc(Cl)c(Cl)c2)CC1 [inhibitor 1] |  |  | antiviral effect in DENV-infected cells [4]: no antiviral effect
N=C(N)NCCC[C@H](NC(=O)[C@H](CCCCN)NC(=O)[C@H](CCCCN)NC(=O)Cc1ccc(-c2ccccc2)cc1)C(N)=O [inhibitor 34] | 0.53 µM | 27.1% | 
N=C(N)NCCC[C@H](NC(=O)[C@H](CCCCN)NC(=O)[C@H](CCCCN)NC(=O)Cc1ccc(CN)cc1)C(N)=O [inhibitor 35] | 0.38 µM | 31.7% | 
N=C(N)NCCC[C@H](NC(=O)[C@H](CCCCN)NC(=O)[C@H](CCCCN)NC(=O)Cc1cccc(CN)c1)C(N)=O [inhibitor 36] | 0.36 µM | 12.4% | 
N=C(N)NCCC[C@H](NC(=O)[C@H](CCCCN)NC(=O)[C@H](CCCCN)NC(=O)Cc1cccc(CNC(=N)N)c1)C(N)=O [inhibitor 37] | 0.18 µM | 32.3% | 
N=C(N)NCCC[C@H](NC(=O)[C@H](CCCCN)NC(=O)[C@H](CCCCN)NC(=O)Cc1ccc(CNC(=N)N)cc1)C(N)=O [inhibitor 38, 4-(guanidinomethyl)-phenylacetyl-Lys-Lys-Arg-NH2] | 0.11 µM | 65% | 
N=C(N)NCCC[C@H](NC(=O)[C@H](CCCCN)NC(=O)[C@H](CCCCN)NC(=O)CC1CCCCC1)C(N)=O [inhibitor 41] | 4.8 µM | 36.7% | 
N=C(N)NCCC[C@H](NC(=O)[C@H](CCCCN)NC(=O)[C@H](CCCCN)NC(=O)CC12CC3CC(CC(C3)C1)C2)C(N)=O [inhibitor 43] | 13.8 µM | 24.2% | 
N=C(N)NCCC[C@H](NC(=O)[C@H](CCCCN)NC(=O)[C@H](CCCCN)NC(=O)[C@@H](N)C12CC3CC(CC(C3)C1)C2)C(N)=O [inhibitor 44] (HELM PEPTIDE1{[N[C@H](C(=O)[*:2])C12CC3CC(CC(C3)C1)C2].K.K.R.[am]}$$$$V2.0) | 70 µM | 14.6% | 
